Results from ChEMBL document CHEMBL1201862, “PubChem BioAssay data set” (2004).
Active and inactive are the calls of the source.

Tests used:
Streptococcus = test: GAS UMAA2166 growth inhibition – luminescence, BacTiterGlo, counter-screen for streptokinase expression inhibitor project, dose response (AID 1915); format: functional, organism-based;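 note: potency for reduction of bacterial viability or growth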
[1] = tested on: Streptococcus sp. 'group A'; test: Streptococcus pyogenes SK(-)GAS viability under kanamycin – luminescence, BacTiterGlo, confirmation, counter-screen for streptokinase expression inhibitor project, dose response (AID 1900); format: functional, organism-based
Streptokinase A = target: T1, Streptokinase A (Streptococcus pyogenes serotype M1, UniProt P10520); test: viability-normalized secreted streptokinase activity reduction – plasminogen activation absorbance, OD405, dose response (AID 1914); format: functional, Streptococcus pyogenes M1 GAS;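 note: secreted streptokinase activity via plasminogen activation per viability signal from cell pellet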
T1 sequence (P10520 whole entry): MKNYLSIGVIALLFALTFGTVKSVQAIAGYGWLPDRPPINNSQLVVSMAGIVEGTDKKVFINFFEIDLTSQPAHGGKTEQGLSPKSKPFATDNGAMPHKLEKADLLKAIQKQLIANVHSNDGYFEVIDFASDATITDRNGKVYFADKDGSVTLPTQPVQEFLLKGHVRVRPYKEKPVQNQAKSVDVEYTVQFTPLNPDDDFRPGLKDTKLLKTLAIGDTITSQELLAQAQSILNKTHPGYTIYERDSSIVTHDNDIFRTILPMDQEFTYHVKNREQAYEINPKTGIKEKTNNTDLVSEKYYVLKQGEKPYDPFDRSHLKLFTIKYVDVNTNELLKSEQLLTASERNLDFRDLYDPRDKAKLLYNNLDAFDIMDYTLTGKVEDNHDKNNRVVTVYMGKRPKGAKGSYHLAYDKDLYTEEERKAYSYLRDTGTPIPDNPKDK

[2] = target: T2, Calpain-2 catalytic subunit (Sus scrofa, UniProt P43367); test: m-calpain protease blockers, concentration series – biochemical, fluorogenic peptide substrate, dose response (AID 1420); format: functional
T2 sequence (P43367 whole entry): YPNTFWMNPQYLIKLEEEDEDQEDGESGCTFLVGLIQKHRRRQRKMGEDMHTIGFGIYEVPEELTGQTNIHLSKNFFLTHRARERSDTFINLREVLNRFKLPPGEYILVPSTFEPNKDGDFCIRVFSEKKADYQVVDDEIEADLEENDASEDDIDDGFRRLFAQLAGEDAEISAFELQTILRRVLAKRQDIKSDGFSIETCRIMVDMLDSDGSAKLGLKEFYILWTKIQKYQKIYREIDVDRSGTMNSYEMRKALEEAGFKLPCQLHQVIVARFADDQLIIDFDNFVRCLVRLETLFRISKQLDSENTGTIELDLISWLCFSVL

INS1 = test: INS-1E survival protection against cytokine death – cell-based, luminescence, retest, dose response (AID 449756); format: functional; conditions: Rattus norvegicus;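 note: cell death triggered by IL-1 beta plus TNF-alpha plus IFN-gamma mixture; protective hits raise ATP signal compared with cytokine alone wells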
[3] = target: T3, Rac GTPase-activating protein 1 (Homo sapiens, UniProt Q9H0H5); test: blockers of MgcRacGAP-driven Rac1 GTP hydrolysis – biochemical, ADP Hunter fluorescence, primary and confirmatory, confirmation (AID 624330); format: functional
T3 sequence (Q9H0H5 whole entry): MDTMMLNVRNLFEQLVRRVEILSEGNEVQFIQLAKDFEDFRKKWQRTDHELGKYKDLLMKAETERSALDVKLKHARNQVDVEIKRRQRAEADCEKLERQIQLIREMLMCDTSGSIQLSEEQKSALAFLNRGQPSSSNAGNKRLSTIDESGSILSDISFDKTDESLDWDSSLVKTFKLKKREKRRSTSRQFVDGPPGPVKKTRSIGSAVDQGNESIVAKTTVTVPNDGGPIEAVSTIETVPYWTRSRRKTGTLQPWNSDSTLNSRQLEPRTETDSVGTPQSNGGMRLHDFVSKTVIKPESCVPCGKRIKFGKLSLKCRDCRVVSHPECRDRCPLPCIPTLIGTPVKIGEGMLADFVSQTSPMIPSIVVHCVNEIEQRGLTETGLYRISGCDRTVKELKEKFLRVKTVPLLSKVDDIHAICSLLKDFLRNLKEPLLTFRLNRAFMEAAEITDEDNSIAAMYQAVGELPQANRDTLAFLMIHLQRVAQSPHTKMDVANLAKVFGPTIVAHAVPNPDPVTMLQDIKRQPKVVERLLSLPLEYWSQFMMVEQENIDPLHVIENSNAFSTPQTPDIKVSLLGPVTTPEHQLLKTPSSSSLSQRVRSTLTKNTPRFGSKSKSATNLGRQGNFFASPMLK

[4] = target: T4, Replicative DNA helicase DnaB (Mycobacterium tuberculosis, UniProt P9WMR3); test: DnaB intein splicing inhibitors, dose response, biochemical, cell-free fluorescence (AID 449749); format: functional
T4 sequence (P9WMR3 whole entry): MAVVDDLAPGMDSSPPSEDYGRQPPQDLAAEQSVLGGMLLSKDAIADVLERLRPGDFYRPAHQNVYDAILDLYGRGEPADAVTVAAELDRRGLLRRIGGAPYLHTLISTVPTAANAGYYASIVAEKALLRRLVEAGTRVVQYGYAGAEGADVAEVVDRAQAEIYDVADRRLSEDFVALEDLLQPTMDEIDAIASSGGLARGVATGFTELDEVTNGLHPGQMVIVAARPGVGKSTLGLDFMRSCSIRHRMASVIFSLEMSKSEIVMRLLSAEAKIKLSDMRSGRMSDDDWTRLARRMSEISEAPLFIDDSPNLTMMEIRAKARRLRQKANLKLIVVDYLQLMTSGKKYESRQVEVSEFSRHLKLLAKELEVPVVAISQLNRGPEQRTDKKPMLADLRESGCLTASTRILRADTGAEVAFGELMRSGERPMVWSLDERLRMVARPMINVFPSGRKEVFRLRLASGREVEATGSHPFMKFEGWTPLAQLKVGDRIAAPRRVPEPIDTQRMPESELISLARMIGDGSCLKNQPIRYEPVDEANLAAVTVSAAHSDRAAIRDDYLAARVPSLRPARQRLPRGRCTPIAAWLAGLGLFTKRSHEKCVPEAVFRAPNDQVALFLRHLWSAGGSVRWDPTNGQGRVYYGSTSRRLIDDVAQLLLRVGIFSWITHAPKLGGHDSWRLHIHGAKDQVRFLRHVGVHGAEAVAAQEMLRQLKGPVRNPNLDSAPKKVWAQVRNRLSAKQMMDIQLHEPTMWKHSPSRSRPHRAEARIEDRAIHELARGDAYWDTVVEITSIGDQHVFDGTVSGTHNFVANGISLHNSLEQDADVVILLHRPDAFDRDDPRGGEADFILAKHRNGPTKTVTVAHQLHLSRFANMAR

Protein RecA = target: T5, Protein RecA (Mycobacterium tuberculosis, UniProt P9WHJ3); test: Fluorescence Cell-Free Homogeneous Dose Retest to Identify Inhibitors of RecA-Intein Splicing Activity. [Related pubchem assays (depositor defined):AID2097, AID2223, AID489010, AID492950]; format: functional
T5 sequence (P9WHJ3 whole entry): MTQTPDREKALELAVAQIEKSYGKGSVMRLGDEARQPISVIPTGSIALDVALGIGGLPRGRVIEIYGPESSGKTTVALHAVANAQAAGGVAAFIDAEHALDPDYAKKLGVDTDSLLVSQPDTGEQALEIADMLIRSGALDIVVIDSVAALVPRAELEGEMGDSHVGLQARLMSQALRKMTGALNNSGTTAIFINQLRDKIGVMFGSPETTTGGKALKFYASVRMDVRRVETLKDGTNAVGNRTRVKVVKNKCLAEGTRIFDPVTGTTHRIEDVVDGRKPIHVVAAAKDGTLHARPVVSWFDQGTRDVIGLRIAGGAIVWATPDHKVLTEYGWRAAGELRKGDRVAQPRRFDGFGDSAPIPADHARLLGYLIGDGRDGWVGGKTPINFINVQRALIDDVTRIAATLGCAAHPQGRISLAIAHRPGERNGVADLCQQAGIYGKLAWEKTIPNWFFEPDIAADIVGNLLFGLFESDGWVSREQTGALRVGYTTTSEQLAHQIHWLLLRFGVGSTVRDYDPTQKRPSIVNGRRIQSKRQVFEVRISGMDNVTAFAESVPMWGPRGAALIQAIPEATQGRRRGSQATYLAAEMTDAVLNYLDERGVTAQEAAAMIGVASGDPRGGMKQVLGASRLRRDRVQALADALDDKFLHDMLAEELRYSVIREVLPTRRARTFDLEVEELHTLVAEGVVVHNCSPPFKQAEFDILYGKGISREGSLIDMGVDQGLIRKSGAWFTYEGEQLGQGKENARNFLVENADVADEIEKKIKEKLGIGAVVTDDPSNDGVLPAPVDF

[5] = microbe, parasite or virus in culture; format: functional; conditions: Mycobacterium tuberculosis
Paired box protein Pax-8 = Paired box protein Pax-8 (Homo sapiens, UniProt Q06710); test: PAX8 transcriptional activity inhibition in RMG-I – RMG-I cells, luciferase, cherry-pick, dose response (AID 687027); format: functional, cell-based;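 note: luciferase reporter driven by Pax8 target thyroperoxidase promoter measured by SteadyGlo luminescence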
Chain of Paired box protein Pax-8 (Q06710 whole entry): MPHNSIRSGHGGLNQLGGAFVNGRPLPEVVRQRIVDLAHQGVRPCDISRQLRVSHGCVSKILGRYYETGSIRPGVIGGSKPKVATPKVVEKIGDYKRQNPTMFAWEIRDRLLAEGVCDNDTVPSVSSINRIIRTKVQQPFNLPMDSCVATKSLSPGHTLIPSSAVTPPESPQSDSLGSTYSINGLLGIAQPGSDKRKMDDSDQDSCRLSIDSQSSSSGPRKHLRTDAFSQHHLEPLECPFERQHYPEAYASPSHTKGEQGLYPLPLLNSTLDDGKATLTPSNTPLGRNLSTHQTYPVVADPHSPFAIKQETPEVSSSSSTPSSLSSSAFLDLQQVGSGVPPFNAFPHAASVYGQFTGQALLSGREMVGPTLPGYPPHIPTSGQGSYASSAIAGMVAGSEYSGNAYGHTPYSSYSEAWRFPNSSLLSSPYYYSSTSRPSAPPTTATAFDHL

## Cc1ccc(Oc2ccc3c(c2)C(=O)N(c2ccc(S(=O)(=O)Nc4nccs4)cc2)C3=O)cc1
Streptococcus
  EC50: 20 µM (active)
[1]
  EC50: 9.43 µM (active)
Streptokinase A
  EC50: > 150 µM (not active)

## CCOc1ccc(NC(=NCc2ccc3c(c2)OCO3)SC2CC(=O)N(c3ccccc3)C2=O)cc1 (stereo not drawn)
[2]
  IC50: > 50 µM (not active)

## CN1CCN(CCc2nc3cc(NC(=O)c4ccco4)ccc3n2C)CC1
[2]
  IC50: > 50 µM (not active)

## COc1ccc(CN2CCN(CCSc3ccc(C)cc3)CC2)c(OC)c1OC
INS1
  AC50: > 260 µM (inactive)
[3]
  IC50: 80 µM (active)

## CC(C)c1ccc(C(=O)NC(=S)NCc2cccnc2)cc1
[2]
  IC50: 27 µM (not active)

## Cc1ccc(C2=NN=C(NC(=O)CSc3nncn3C)SC2)cc1
[3]
  IC50: 256 µM (active)

## COC(=O)c1ccc(/C=N/NS(=O)(=O)c2cc(C)ccc2C)cc1
[2]
  IC50: 6.58 µM (not active)

## O=C1CC/[N+](=C\c2ccc(Cl)cc2)[N-]1
[4]
  AC50: 150 µM (active)
Protein RecA
  EC50: 3.64 µM (active)

## CC(CCc1ccccc1)NC(=O)/C=C/c1ccc(F)cc1 (stereo not drawn)
[2]
  IC50: 27.6 µM (not active)

## COc1cc(/C=C/C(=O)OCC(=O)Nc2cc(S(=O)(=O)N3CCCCC3)ccc2C)ccc1O
[3]
  IC50: 68.1 µM (active)

## CS(=O)(=O)Nc1ccc(C(=O)Nc2ccccc2C(=O)NCc2ccco2)cc1
Streptococcus
  EC50: > 150 µM (not active)
[1]
  EC50: > 150 µM (not active)
Streptokinase A
  EC50: > 150 µM (not active)

## Cc1ccc(NC(=O)NN(C)c2c(Cl)c(Cl)nn2C)cc1
[2]
  IC50: > 50 µM (not active)

## O=C(NC(=S)N1CCN(c2ccc(F)cc2)CC1)C12CC3CC(CC(C3)C1)C2
Streptococcus
  EC50: > 150 µM (not active)
[1]
  EC50: 29.7 µM (active)
Streptokinase A
  EC50: > 150 µM (not active)

## CCc1ccc2nc(N3C(=O)C(O)=C(C(=O)c4ccco4)C3c3cccs3)sc2c1 (stereo not drawn)
[5]
  CC50: > 40 µM (active)
Streptococcus
  EC50: 7.12 µM (active)
[1]
  EC50: 2.2 µM (active)
Streptokinase A
  EC50: > 150 µM (not active)

## CCN=C(S)Nc1cc2oc3ccccc3c2cc1OC
[3]
  IC50: 99.9 µM (active)

## COc1ccc(-c2cc(CNC(=O)CCl)on2)cc1
[4]
  AC50: 262 µM (active)
Protein RecA
  EC50: 17.7 µM (active)

## O=C(CN1CCN(Cc2ccccc2)CC1)NC(c1ccccc1)c1ccccc1
[3]
  IC50: 77.1 µM (active)

## CCOc1cc(C(c2c(C)n[nH]c2O)c2c(C)n[nH]c2O)ccc1OCc1ccc([N+](=O)[O-])cc1
[4]
  AC50: 0.281 µM (active)
Protein RecA
  EC50: 0.159 µM (active)

## CC(NS(=O)(=O)/C=C/c1ccccc1)C(=O)O (stereo not drawn)
Streptococcus
  EC50: > 150 µM (not active)
[1]
  EC50: > 150 µM (not active)
Streptokinase A
  EC50: > 150 µM (not active)

## COc1ccccc1/N=C1\C(Cl)=C(O)OC1OC(=O)c1ccco1 (stereo not drawn)
[4]
  AC50: 12.5 µM (active)
Protein RecA
  EC50: 13.4 µM (active)

## CN(c1ccccc1)c1ccc([N+](=O)[O-])c2nonc12
[4]
  AC50: 74.7 µM (active)
Protein RecA
  EC50: 5.22 µM (active)

## COc1ccc(C2c3ccc(O)cc3Oc3ncn4nc(-c5ccncc5)nc4c32)cc1OC (stereo not drawn)
Streptococcus
  EC50: 27.9 µM (active)
[1]
  EC50: 4.67 µM (active)
Streptokinase A
  EC50: > 150 µM (not active)

## Cc1ccc(CN=C(S)Nc2ccc(NS(=O)(=O)c3ccc(C)cc3)cc2)cc1
Streptococcus
  EC50: 17.6 µM (active)
[1]
  EC50: 9.78 µM (active)
Streptokinase A
  EC50: > 150 µM (not active)

## O=C(COC(=O)c1ccco1)Nc1cccc(S(=O)(=O)N2CCOCC2)c1
Paired box protein Pax-8
  AC50: 62.1 µM (active)

## CCC(C)(C)NC(=O)c1ccc(S(=O)(=O)N2CCCCCC2)cc1
[2]
  IC50: 22.9 µM (not active)

## O=C1CC(c2cccnc2)=NN1c1ccccc1
[4]
  AC50: 3.7 µM (active)
Protein RecA
  EC50: 13.9 µM (active)

## O=C(OCc1nnn(Cc2ccccc2)c1-c1c(COC(=O)c2ccccc2)nnn1Cc1ccccc1)c1ccccc1
[2]
  IC50: 2.52 µM (not active)

## COCc1nc2ccccc2n1Cc1ccc(Br)cc1
[2]
  IC50: 8.1 µM (not active)

## Cn1c(N)c(C(=O)COC(=O)C23CC4CC(CC(C4)C2)C3)c(=O)n(C)c1=O
[2]
  IC50: 2.26 µM (active)

## Brc1ccc(OCCCN2CCOCC2)cc1
[3]
  IC50: 123 µM (active)

## CCCCn1c(=O)c(C(=O)NCc2ccccc2Cl)c(O)c2ccccc21
Streptococcus
  EC50: > 150 µM (not active)
[1]
  EC50: 54.8 µM (active)
Streptokinase A
  EC50: 5.97 µM (inconclusive)

## C[C@@H]1CN([C@@H](C)CO)C(=O)c2cc(NC(=O)Nc3ccc4c(c3)OCO4)ccc2O[C@@H]1CN(C)C(=O)Nc1ccc(C(F)(F)F)cc1
Paired box protein Pax-8
  AC50: 11.1 µM (active)

## COc1ccc(/C=C2/C(=O)N(Cc3ccccc3)N=C2C)cc1
[4]
  AC50: 4.12 µM (active)
Protein RecA
  EC50: 1.91 µM (active)
